Target: T1, dCRY (Drosophila cryptochrome) (Drosophila melanogaster, UniProt O77059)
T1 construct: gene cry; full length, 542 residues; His6, N-terminal Avi tag (biotinylated) and C-terminal ybbR tag (DNA handle) kept; 558 residues with engineered linkers; FAD dialysed out for apo; only genus Drosophila given
Experiment: single-molecule optical tweezers, FAD titration of fully folded fraction
Assay type: binding
Conditions: read-out: Kd,app

T1 sequence (O77059 whole entry): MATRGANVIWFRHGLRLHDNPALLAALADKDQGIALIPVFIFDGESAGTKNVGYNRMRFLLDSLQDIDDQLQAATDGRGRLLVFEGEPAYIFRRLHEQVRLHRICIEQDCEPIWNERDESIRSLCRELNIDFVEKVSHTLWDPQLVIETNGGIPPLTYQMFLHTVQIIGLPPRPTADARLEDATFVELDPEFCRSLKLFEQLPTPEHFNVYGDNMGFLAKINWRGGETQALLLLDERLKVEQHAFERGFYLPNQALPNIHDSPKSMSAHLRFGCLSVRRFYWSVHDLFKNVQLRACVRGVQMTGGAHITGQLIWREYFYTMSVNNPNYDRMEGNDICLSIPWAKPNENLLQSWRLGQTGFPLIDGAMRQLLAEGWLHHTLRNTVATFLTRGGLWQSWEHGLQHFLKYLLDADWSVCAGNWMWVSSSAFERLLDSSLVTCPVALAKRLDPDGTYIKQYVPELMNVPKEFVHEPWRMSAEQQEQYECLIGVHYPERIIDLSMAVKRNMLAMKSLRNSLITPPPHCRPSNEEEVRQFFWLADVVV

Row | Kd | Structure (SMILES)
1 | 0.11 ± 0.01 nM | Cc1cc2nc3c(=O)[nH]c(=O)nc-3n(C[C@H](O)[C@H](O)[C@H](O)COP(=O)(O)OP(=O)(O)OC[C@H]3O[C@@H](n4cnc5c(N)ncnc54)[C@H](O)[C@@H]3O)c2cc1C [FAD]

Target: T1, dCRY (Drosophila cryptochrome)
Experiment: single-molecule optical tweezers, ligand-promoted refolding
Assay type: binding
Conditions: 0.1 mM ligand, FAD dialysed out; refolding 20 s at 1 pN; pH 8.0; no Mg2+

Row | Structure (SMILES) | % fully folded events at 0.1 mM
2 | Cc1cc2nc3c(=O)[nH]c(=O)nc-3n(C[C@H](O)[C@H](O)[C@H](O)CO)c2cc1C [riboflavin] | 39%
3 | Cc1cc2nc3c(=O)[nH]c(=O)nc-3n(C[C@H](O)[C@H](O)[C@H](O)COP(=O)(O)O)c2cc1C [FMN] | 84%
4 | Nc1ncnc2c1ncn2[C@@H]1O[C@H](CO)[C@@H](O)[C@H]1O [adenosine] | 20%

Second part, the molecule after the results:

Row | % fully folded events at 0.1 mM | Structure (SMILES)
5 | 9% | Nc1ncnc2c1ncn2[C@@H]1O[C@H](COP(=O)(O)OP(=O)(O)O)[C@@H](O)[C@H]1O [ADP]
6 | 24% | Nc1ncnc2c1ncn2[C@@H]1O[C@H](COP(=O)(O)O)[C@@H](O)[C@H]1O [AMP]
